Experimental data reported in patent US4231925A, “Pentapeptides with analgesic activity on peripheral administration” (American Home Products Corporation, priority 1979, dated 1980).
“And” between values parts separate entries of the source, which are not always exact repeats. Identical values can stand only once. Like-named read-outs stand apart in the source and are kept apart here.

What was measured:
[1] = test system: phenylbenzoquinone (PBQ)-induced writhing; experiment: phenylbenzoquinone-induced writhing test, subcutaneous administration; type: in vivo, mice
Protocol: The procedure is a modification of the method described by Siegmund and Cadmus, Proc. Soc. Exp. Biol. Med., 95, 729-731 (1957), which is used to evaluate both narcotic and non-narcotic analgesics. […] Laboratory mice of either sex, weighing 18-27 g. are used in groups of ten as test subjects. The test compound is administered first in an initial dose determined by the potency of the class of compounds and the route of administration. The test is run first in one group of mice at a relatively high dose to establish significant analgesic activity [see (1) in Table I]. When analgesic activity is observed in four or more of this group, a second test is run on at least three groups of mice to determine the most appropriate dose/time response to use in the subsequent dose response test [see (2) in Table I]. Finally, the ED50 dose is determined by administering different doses to several groups of mice and observing their reaction during the time interval established by the dose/time test [see (3)-(9) in Table I]. Note that the time interval is designated by the median time of the chosen response observation period (e.g. 15, 30, or 45 minutes). In testing each group of mice according to the above protocol, all mice in the group first are administered the selected dose of the test compound solution. Five minutes prior to the observation period (viz. at 5, 20, or 35 minutes after subcutaneous administration of the test compound of at 20, 50, or 80 minutes after oral administration of the test compound) all mice in the group receive 0.25 ml., intraperitoneally, of the writhing agonist (i.e. 0.02% solution of PBQ). At the chosen time interval, the group of mice is observed for a period of ten minutes for writhing.

[2] = test system: rat brain opiate receptors; experiment: in vitro opiate receptor assay, 3H-naloxone displacement in rat brain homogenate; type: binding; conditions: relative to morphine = 1.0
Protocol: In this procedure, a fasted male Charles River CD rat, 190-290 g., is killed with a guillotine after carbon-dioxideanesthesia, and the brain is rapidly removed. After the cerebellum is excised, the brain is homogenized in 100 vol. (usually 150 ml.) iced 0.05 M Trizma buffer (pH 7.4 at 25°) 0.1 M in sodium chloride in a Brinkman Polytron for 1 min. at setting 3. The homogenate is centrifuged at 49,500 g for 15 min. (Sorvall SS-34 rotor at 19,500 rpm) in 50 ml. propylene tubes. The supernatant is decanted, and the pellets are resuspended in iced buffer to the original volume by use of a motor driven pestle tissue grinder. The homogenate is centrifuged again and resuspended in 10 ml. iced buffer.
Homogenates and samples ae equilibrated at room temperature for 5 minutes before adding 0.05 ml. 3 H-naloxone solution to give a total volume of 0.50 ml. for all tubes.
The assay tubes are hand-shaken every 15 min. for an incubation time of 60 min. at 0° C. The contents are filtered under reduced pressure through Whatman glass-fiber circles (GF/B, 2.4 cm. dia.). […] The vials are hand-shaken immediately, after 30 min., at the end of the day, stored overnight, hand-shaken, and radioactivity is determined by liquid-sintillation spectrometry.
The assay is calculated as follows: […]

[3] = test system: tail-flick; conditions: rat, cited from earlier work
[4] = oral administration; cited from earlier work
[5] = test system: opiate receptor; conditions: electrically stimulated guinea pig ileum; cited from earlier work
[6] = intracerebroventricularly, intravenously, or subcutaneously; cited from earlier work
[7] = rat lateral brain ventricle; cited from earlier work
[8] = e.g. subcutaneously or intravenously; cited from earlier work
[9] = human blood plasma; cited from earlier work
[10] = rat blood plasma; cited from earlier work

Compound: CN[C@@H](Cc1ccc(O)cc1)C(=O)N[C@H](CCSC)C(=O)NCC(=O)N(C)[C@@H](Cc1ccccc1)C(=O)N[C@H](CO)C(N)=O [Example 1, N-Methyl-Tyrosyl-D-Methionyl-Glycyl-N-Methyl-Phenylalanyl-D-Serinamide . Acetate]
- No. Analgesic / Total No. Tested ([1]; (1) 10.0 mg/kg subcutaneous, 15 minutes, 10 mg/kg): 10/10 and 10 of 10
- No. Analgesic / Total No. Tested ([1]; (2) dose/time test, 0.1 mg/kg subcutaneous, 15 minutes): 4/10
- No. Analgesic / Total No. Tested ([1]; (2) dose/time test, 0.1 mg/kg subcutaneous, 30 minutes): 3/10
- No. Analgesic / Total No. Tested ([1]; (2) dose/time test, 0.1 mg/kg subcutaneous, 45 minutes): 1/10
- No. Analgesic / Total No. Tested ([1]; (3) 0.032 mg/kg subcutaneous, 15 minutes): 0/10
- No. Analgesic / Total No. Tested ([1]; (4) 0.056 mg/kg subcutaneous, 15 minutes): 3/10
- No. Analgesic / Total No. Tested ([1]; (5) dose response test, 0.1 mg/kg subcutaneous, 15 minutes): 2/10
- No. Analgesic / Total No. Tested ([1]; (6) 0.178 mg/kg subcutaneous, 15 minutes): 6/10
- No. Analgesic / Total No. Tested ([1]; (7) 0.316 mg/kg subcutaneous, 15 minutes): 5/10
- No. Analgesic / Total No. Tested ([1]; (8) 0.56 mg/kg subcutaneous, 15 minutes): 4/10
- No. Analgesic / Total No. Tested ([1]; (9) 1.00 mg/kg subcutaneous, 15 minutes, 1 mg/kg): 8/10 and 8 of 10
- ED50 ([1]; subcutaneous, mice, complete inhibition of PBQ-induced writhing, 15 minutes): 0.33 mg/kg
- Relative Displacement Potency [2]: 14
- Relative Displacement Potency ([2]; listed as Example I): in excess of ten times

Compound: CN1CC[C@]23c4c5ccc(O)c4O[C@H]2[C@@H](O)C=C[C@H]3[C@H]1C5 [Morphine]
- duration of analgesia ([3]; morphine comparison): an hour or more

Compound: (D-Ala^2, Me-Phe^4, Met(0)^5)-enkephalin
- analgesic activity [4]: elicited analgesic activity

Compound: (D-Ala^2, Met(O)^5)-enkephalin
- analgesic activity [4]: elicited analgesic activity

Compound: (D-Met^2, Leu^5) enkephalin, methyl ester
- opiate receptor agonist activity [5]: strong opiate receptor agonist activity

Compound: (D-Met^2, Pro^5)-enkephalin amide
- analgesic activity [6]: elicits analgesic activity

Compound: (Ser^5)-enkephalin
- analgesic activity [7]: eliciting analgesic activity

Compound: H--Tyr--Gly--Gly--Phe--Leu--OH [Leu-enkephalin]
- dose producing analgesia equivalent to morphine ([3]; intraventricular): 10-20 times that of morphine
- duration of analgesia ([3]; intraventricular): 10 to 12 min
- activity when administered systemically [8]: virtually inactive

Compound: H--Tyr--Gly--Gly--Phe--Met--OH [Met-enkephalin]
- breakdown in blood plasma [9]: broken down
- dose producing analgesia equivalent to morphine ([3]; intraventricular): 10-20 times that of morphine
- duration of analgesia ([3]; intraventricular): 10 to 12 min
- breakdown in blood plasma [10]: broken down
- activity when administered systemically [8]: virtually inactive
